Assay results reported in patent US20100202971A1, “COMPOUND HAVING TUMOR-RESIDENT PROPERTY” (priority 2009, published 2010).

Test system: Human giant cell lung carcinoma cells Lu65
Experiment: Biological distribution of biotinated αSQAP in tumor of tumor-bearing nude mice (Alexa 488 avidin staining of tumor slices)
Assay type: in vivo, KSN nude mice
Conditions: tail vein, one hour after administration, FIG. 2
Protocol: Human giant cell lung carcinoma cells Lu65 were transplanted into six-week-old male KSN nude mice in a number of 1×10^6 for each of the mice, and the mice were bred for 14 days to form a tumor mass of about 100-200 mm^3 volume in each of the mice.
Thereafter, three mice were assigned to each of the following four groups (1) to (4):
(1) a control group wherein physiological saline was administered,
(2) a high dose group wherein biotinated αSQAP was administered in a dose of 50 mg/kg,
(3) a middle dose group wherein biotinated αSQAP was administered in a dose of 5 mg/kg, and […]
The slice was observed by a fluorescence microscope, and the slice was made into an image. Data on the image were input to a computer, and then positive signals of the image were quantified according to image analysis software.
Specifically, binary image processing based on Photoshop was performed to estimate a tumor region emitting fluorescence through the labeling material Alexa 488 in the slice. Thereafter, a portion (fraction) containing tumor tissues was selected from the visual field, and the number of pixels of the Alexa 488 positive region (black region) and the entire region were counted and the ratio of the positive region was calculated according to the formula: […]

O=C(CCCC[C@@H]1SC[C@@H]2NC(=O)N[C@@H]21)NCCC(=O)OCCCO[C@H]1O[C@H](CS(=O)(=O)[O-])[C@@H](O)[C@H](O)[C@H]1O.O=C(CCCC[C@@H]1SC[C@@H]2NC(=O)N[C@@H]21)NCCC(=O)OCCCO[C@H]1O[C@H](CS(=O)(=O)[O-])[C@@H](O)[C@H](O)[C@H]1O.[Ca+2] [biotinated αSQAP, 3-O-(6-sulfo-α-D-quinovopyranosyl)-1-O-(biotinyl-β-alanyl)-propane-1,3-diol calcium salt]
amount in tumor (50 mg/kg): large | staining of tumor tissues (Alexa 488 positive region) (high dose group 50 mg/kg): intensely dyed
